Values quoted from earlier work as cited in patent publication US20100221327A1, “Nanoparticulate azelnidipine formulations” (Elan Pharma International Limited, priority 2005, published 2010).
“Also recorded” adds a separate entry of the source.

CC1=C(C(=O)OC(C)C)C(c2cccc([N+](=O)[O-])c2)C(C(=O)OC2CN(C(c3ccccc3)c3ccccc3)C2)=C(N)N1 (racemic) [Azelnidipine, (±)-3-(1-Diphenylmethylazetidin-3-yl)-5-isopropyl 2-amino-1,4-dihydro-6-methyl-4-(3-nitrophenyl)-3,5-pyridinedicarboxylate]
Solubility in water: only slightly soluble; also recorded: practically insoluble
